From patent publication US11986482B2, “Method of promoting antitumor or anti-cancer immunity” (City University of Hong Kong, priority 2021, dated 2024)

Legend:
PD-L1 [1] = test: PD-L1 colocalization imaging in PD-L1-GFP HeLa cells; format: cell-based; conditions: 1 μM, 24 h
Protocol: (§1) Next, inventors assess if 6J1 can compromise PD-L1 trafficking. PDL1-GFP stable expressing HeLa cells are treated with or without 6J1 (1 μM) for 24 h. Cells are fixed and stained with Rab5 or EEA1. Their quantifications of the colocalization are shown in FIGS. 4d and 4e, respectively. […] Inventors thus further quantify cell membrane PD-L1 levels in live cells treated with or without 6J1 by flow cytometry or confocal imaging.
It has previously been shown that interfering with endosomal trafficking promotes exosome secretion. Moreover, PD-L1 has been reported to be enriched in exosomes and secreted outside the cell. Thus, inventors speculate that 6J1 may induce the secretion of the PD-L1 trapped in the endosomal compartments via exosomes. To determine whether 6J1 may induce the secretion of PD-L1 via exosomes, HeLa cells are treated with or without 6J1 (1 μM) for 24 h. The supernatant is collected. Inventors purify the exosomes from the supernatant of HeLa cells by sequential centrifugation. The concentration of extracellular vesicle is determined using a Nanosight nanoparticle analyzer. And HeLa cells are treated with or without 6J1 (1 μM) for 48 h. The cell and supernatant are collected for Western Blot analysis. […] Moreover, the activity of Rab27a in HeLa cells treated with or without 6J1 (1 μM) is examined with a GST-SHD pulldown assay.
HeLa cells are treated with or without 6J1. After 6 h, cells are collected for western blot analysis of LC3 and p62. […] In addition, ATG5-knockout HeLa cells are transfected with PD-L1-GFP and LC3-RFP, and then treated with or without 6J1 (1 μM) for 24 h. Cells are fixed and imaged. […] Furthermore, LC3B-knockout HeLa cells are transfected with PD-L1-GFP, and then treated with or without 6J1 (1 μM) for 24 h. Cells are fixed and stained with antibodies against Rab5 (FIG. 6d) or Rab27a (FIG. 6e).

PD-L1 [2] = test: Plasma membrane PD-L1 level in HeLa cells (flow cytometry, confocal imaging); format: cell-based; conditions: 1 μM, 24 h
Protocol: as §1
Moreover, ATG5- or LC3-knockout HeLa cells are treated with or without 6J1 (1 μM) for 24 h. The supernatant is collected, and the concentration of the extracellular vesicle is determined using a Nanosight nanoparticle analyzer. The exosomes are also collected and subjected to western blot analysis of the EVs marker and PD-L1 in FIG. 7a. The live cells are also labeled with an anti-PD-L1 antibody in FIG. 7b and subjected to flow cytometry analysis in FIG. 7c. […] In addition, inventors assess whether other autophagy-related genes, e.g., ATG4B, ATG7, Beclin1, and Vps34 are involved in 6J1-mediated exosomal PD-L1 secretion. ATG4B-, ATG7-, Beclin1-, or VPS34-knockout HeLa cells are treated with or without 6J1 (1 μM) for 24 h. The supernatant is collected, and the concentration of extracellular vesicle is determined using a Nanosight nanoparticle analyzer. The exosomes are also collected and subjected to western blot analysis of the EVs marker and PD-L1 in FIG. 7d. The live cells are also labeled with an anti-PD-L1 antibody and subjected to flow cytometry analysis in FIG. 7e.

4T1 cells = test: Cell viability of 4T1 cells, MTT assay; format: cell-based; conditions: ≤1 μM, 24 h or 48 h
Protocol: The inventors also test the cytotoxicity of 6J1 in several cancer cell lines, HeLa, A549 and MDA-MB-231 cell lines. Cells are grown in 96-well plates in triplicate and treated with or without 6J1 at the concentrations of 0, 0.01, 0.1, 1, 10 and 100 μM indicated for 24 h or 48 h. They are then stained with propidium iodide (PI) or Hochest 33342 to measure the cell death ratio and cell number, respectively. […] Inventors also test the cytotoxicity of 6J1 in 4T1 cells. 4T1 cells are plated in 96-well plates in triplicate and treated with or without 6J1 at the concentrations of 0, 0.01, 0.1, 1, 5, 10, 20, 40, 80 and 100 μM indicated for 24 h or 48 h. The cell viability was then quantified via the MTT assay.

[3] = Repeated-dose oral gavage toxicity in rats, up to 7 days; conditions: rat, in vivo
Protocol: Inventors also evaluate the toxicity profile following oral gavage administration of 6J1 at dose levels of 0 (vehicle), 150, 450, and 1000 mg/kg once daily for up to 7 consecutive days to rats. Rats of the 300 mg/kg group are tested separately from other groups (showing higher initial weight than other groups), and rats of 450 and 1000 mg/kg groups are terminated on day 4 due to several clinical findings.

Structure (SMILES): OCCOCCN(c1ccccc1)c1nc(N/N=C/c2cccc(I)c2)nc(N2CCOCC2)n1 [Compound 6J1]
- 6J1-induced PD-L1 puncta (PD-L1 [1]; ATG5-knockout HeLa cells): no effect on 6J1-induced PD-L1 puncta
- PD-L1/LC3B colocalization in 6J1-treated cells (PD-L1 [1]; ATG5-knockout HeLa cells): abolishes this colocalization between PD-L1 and LC3B
- 6J1-induced PD-L1 puncta and PD-L1 colocalization with RAB5 or RAB27A (PD-L1 [1]; LC3B-knockout HeLa cells): LC3B knockout does not affect
- accumulation of PD-L1 in vesicles colocalized with early endosome markers EEA1 and RAB5 (PD-L1 [1]; PD-L1-GFP HeLa cells): clearly induces the accumulation of PD-L1 within vesicle-like structures in the cytoplasm
- colocalization between PD-L1 and RAB11 (recycling endosome marker) (PD-L1 [1]; PD-L1-GFP HeLa cells): markedly decreases the colocalization between PD-L1 and RAB11
- colocalization of PD-L1 with exosomal markers TSG101, CD63, Rab27A (PD-L1 [1]; PD-L1-GFP HeLa cells): significantly induces the colocalization of PD-L1 with the exosomal markers
- colocalization of PD-L1-containing vesicles with LC3B puncta (PD-L1 [1]; control HeLa cells with PD-L1-GFP and LC3-RFP): strongly colocalized with LC3B puncta
- 6J1-mediated decrease in the level of PD-L1 at the cell surface (PD-L1 [2]; ATG4B-, ATG7-, Beclin1- or VPS34-knockout HeLa cells): does not affect
- 6J1-induced decrease in the level of PD-L1 at the cell surface (PD-L1 [2]; ATG5- or LC3B-knockout HeLa cells): Neither ATG5 nor LC3B knockout impairs
- expression of PD-L1 on the surface of cells (PD-L1 [2]; HeLa cells): significantly reduces the expression of PD-L1 on the surface of cells
- proliferation of 4T1 cells (4T1 cells): little effect
- findings at 450 and 1000 mg/kg [3]: severe clinical findings
- therapeutic window in experimental animals [3]: at least 10 fold
- clinical signs at 300 mg/kg ([3]; po, 300 mg/kg): soft feces, hunched posture, and reduced feces
- finding at 1000 mg/kg ([3]; po, 1000 mg/kg): mortality
- dose levels not tolerated on repeated daily dosing ([3]; po, 4 days): ≥ 450 mg/kg
- repeated daily dosing considered tolerated up to ([3]; po, 7 days): up to 300 mg/kg
